From patent US8980891B2, “Crystalline forms of certain 3-phenyl-pyrazole derivatives as modulators of the 5-HT2A serotonin receptor useful for the treatment of disorders related thereto” (Arena Pharmaceuticals, Inc., priority 2009, dated 2015)
Blank lines part the entries; values can stand above or below the compound they belong to.

What was measured:
JC virus = conditions: cited from earlier work
5-HT2A = 5-HT2A (Homo sapiens, UniProt P28223); conditions: cited from earlier work
[1] = tested on: DOCA-salt induced hypertension; conditions: rats; cited from earlier work
[2] = slurry of the anhydrous form in water; assay type: physicochemical; conditions: stirred at about 26-28° C. for ~3 days
Description: A slurry of anhydrous 4-(2-(4-(3-methoxybenzamido)-2-(1-methyl-1H-pyrazol-5-yl)phenoxy)ethyl)morpholin-4-ium chloride in water was stirred at ambient/stir plate temperature (about 26-28° C.) for ˜3 days.

diabetic nephropathy = conditions: trial of 24 months of treatment; cited from earlier work
thermal induced pain = conditions: rats, intraperitoneal administration; cited from earlier work
glaucoma patients = conditions: cited from earlier work
inflammatory pain = conditions: rats, intrathecal or intraperitoneal administration; cited from earlier work
[3] = tested on: lower back pain, leg pain and numbness associated with sciatica; conditions: humans; cited from earlier work
[4] = tested on: spontaneously hypertensive rats; conditions: cited from earlier work
heatstroke = conditions: in vivo; cited from earlier work

5-HT2A, sequence (P28223 whole entry, species assumed): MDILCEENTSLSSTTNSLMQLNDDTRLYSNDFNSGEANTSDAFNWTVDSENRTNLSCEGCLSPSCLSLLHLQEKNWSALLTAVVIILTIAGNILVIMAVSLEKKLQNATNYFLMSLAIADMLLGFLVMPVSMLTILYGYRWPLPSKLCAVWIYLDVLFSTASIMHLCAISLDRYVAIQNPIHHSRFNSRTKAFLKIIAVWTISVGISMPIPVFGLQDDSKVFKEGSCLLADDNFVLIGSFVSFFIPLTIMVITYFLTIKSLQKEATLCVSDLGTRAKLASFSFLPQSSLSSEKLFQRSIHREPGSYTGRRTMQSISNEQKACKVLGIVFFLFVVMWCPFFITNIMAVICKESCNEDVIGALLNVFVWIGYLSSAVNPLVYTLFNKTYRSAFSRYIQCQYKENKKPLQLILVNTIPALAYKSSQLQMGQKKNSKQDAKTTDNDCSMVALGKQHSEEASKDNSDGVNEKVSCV

SMILES: Cc1nc2sccn2c(=O)c1CCN1CCC(=C(c2ccc(F)cc2)c2ccc(F)cc2)CC1 [ritanserin]
JC virus infection of human glial cells (JC virus): inhibited
activity at 5-HT2A (5-HT2A): inverse agonist activity

SMILES: CN1CCN2c3ccccc3Cc3ccccc3C2C1 (centres unmarked) [Mainserin]
DOCA-salt induced hypertension [1]: prevent

solid form recovered after slurry in water [2]: anhydrous form was recovered
SMILES: COc1cccc(C(=O)Nc2ccc(OCCN3CCOCC3)c(-c3ccnn3C)c2)c1.Cl [Example 1, 4-(2-(4-(3-Methoxybenzamido)-2-(1-methyl-1H-pyrazol-5-yl)phenoxy)ethyl)morpholin-4-ium chloride]

SMILES: COc1cccc(CCc2ccccc2OCC(CN(C)C)OC(=O)CCC(=O)O)c1 (centres unmarked) [sarpogrelate]
urinary albumin excretion level (diabetic nephropathy): significantly reduced
analgesic effect on thermal induced pain (thermal induced pain): significant analgesic effect
IOP (glaucoma patients): significantly lower
analgesic effect on inflammatory pain (inflammatory pain): significant analgesic effect
treatment for lower back pain, leg pain and numbness associated with sciatica brought on by lumbar disc herniation [3]: effective treatment

SMILES: O=C(c1ccc(F)cc1)C1CCN(CCn2c(=O)[nH]c3ccccc3c2=O)CC1 [ketanserin]
JC virus infection of human glial cells (JC virus): inhibited
activity at 5-HT2A (5-HT2A): inverse agonist activity
blood pressure [4]: stabilize
IOP (glaucoma patients): significantly lower
protection against circulatory shocks, intracranial hypertension, and cerebral ischemia during heatstroke (heatstroke): protect
